Laboratory results reported in BindingDB's records for patent US10744117 (The Scripps Research Institute; The University of Toledo, 2020).

Biological target: T1, Peroxisome proliferator-activated receptor gamma (Homo sapiens, UniProt P37231)
T1 sequence (P37231 whole entry): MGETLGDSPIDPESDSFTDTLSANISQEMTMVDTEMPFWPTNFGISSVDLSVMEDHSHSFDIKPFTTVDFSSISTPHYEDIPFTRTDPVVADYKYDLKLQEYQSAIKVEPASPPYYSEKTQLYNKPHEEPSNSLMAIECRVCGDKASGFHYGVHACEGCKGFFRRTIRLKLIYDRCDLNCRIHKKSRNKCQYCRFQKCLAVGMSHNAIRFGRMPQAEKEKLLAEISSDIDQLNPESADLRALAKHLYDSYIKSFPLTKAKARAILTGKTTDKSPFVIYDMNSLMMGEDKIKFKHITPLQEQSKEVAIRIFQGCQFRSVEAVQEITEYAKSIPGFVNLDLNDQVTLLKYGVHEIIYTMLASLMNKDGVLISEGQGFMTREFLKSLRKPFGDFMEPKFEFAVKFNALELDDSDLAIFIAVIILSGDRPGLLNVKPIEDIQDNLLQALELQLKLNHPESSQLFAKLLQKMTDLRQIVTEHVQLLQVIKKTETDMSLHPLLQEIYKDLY

## Cc1c(C)n(Cc2ccc(-c3ccc(Cl)c(O[C@H](C)C(=O)O)c3)cc2)c2ccc(C(=O)N[C@@H](C)c3ccc(C(C)(C)C)cc3)cc12 [US10744117, Compound IA-58]
  IC50: 15 µM
